33 molecules from US8084479B2, “Thiazole compounds and methods of use” (Amgen Inc., priority 2006, dated 2011) can be followed below.

Where only a bound is given, the exact number is not on record here.

The IC50 is the concentration that gives 50% inhibition. Low readings indicate inhibition by little substance, high ones a need for much substance.

For the assay, the target named is PKBα (Homo sapiens, UniProt P31749). The assay is described as follows: PKB kinase assay (P33-labeled ATP, peptide substrate, filter plate). The assay is classed as biochemical. The settings on record: PKBα enzyme (full length or kinase domain with pleckstrin domain deleted). An excerpt:
The kinase assay for evaluating PKB activity comprises active PKB enzymes, a PKB specific substrate, and P^33-labeled ATP. […] The phosphorylated substrate was captured by a phosphocellulose membrane filter plate (MLLIPORE) and measured by a Wallac Microbeta liquid scintillation counter (Perkin Elmer).

Sequence of PKBα (P31749 118-480 limits assumed): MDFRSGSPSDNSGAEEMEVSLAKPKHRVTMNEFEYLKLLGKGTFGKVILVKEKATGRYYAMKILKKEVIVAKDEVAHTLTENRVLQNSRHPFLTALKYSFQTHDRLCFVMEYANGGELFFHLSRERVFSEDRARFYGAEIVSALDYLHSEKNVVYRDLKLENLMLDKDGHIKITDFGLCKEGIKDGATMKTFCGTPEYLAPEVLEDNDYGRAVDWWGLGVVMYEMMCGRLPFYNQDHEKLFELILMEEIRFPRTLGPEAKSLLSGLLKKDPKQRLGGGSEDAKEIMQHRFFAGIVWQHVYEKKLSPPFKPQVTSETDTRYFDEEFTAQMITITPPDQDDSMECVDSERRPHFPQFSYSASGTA

`N[C@H](CNc1ncc(-c2cc(F)c3c(c2)CC(=O)N3)s1)Cc1ccc(C(F)(F)F)nc1` [Example 221, 5-(2-((S)-2-amino-3-(6-(trifluoromethyl)pyridin-3-yl)propylamino)thiazol-5-yl)-7-fluoroindolin-2-one]: the IC50 is < 50 nM.

With `N[C@H](CNc1ncc(-c2ccc3cnccc3c2)s1)[C@@H](CO)c1ccc(C(F)(F)F)cc1` [Example 159, (2S,3S)-3-amino-4-(5-(isoquinolin-6-yl)thiazol-2-ylamino)-2-(4-(trifluoromethyl)phenyl)butan-1-ol], the IC50 was < 50 nM. For `C[C@@H](c1ccc(C(F)(F)F)cc1)[C@H](N)CNc1ncc(-c2ccc3cnccc3c2)s1` [Example 110, N-((2S,3S)-2-Amino-3-(4-(trifluoromethyl)phenyl)butyl)-5-(isoquinolin-6-yl)thiazol-2-amine] the value was < 50 nM; for `N[C@H](CNc1ncc(-c2ccc3[nH]c(=O)oc3c2)s1)Cc1cccc(C(F)(F)F)c1` [Example 46, 6-(2-((S)-2-amino-3-(3-(trifluoromethyl)phenyl)propylamino)thiazol-5-yl)benzo[d]oxazol-2(3H)-one], 50 to 1000 nM; for `N[C@H](CNc1nc(-c2cccnc2)c(-c2ccc3cnccc3c2)s1)Cc1ccc(C(F)(F)F)cc1` [Example 104, N—((S)-2-Amino-3-(4-(trifluoromethyl)phenyl)propyl)-5-(isoquinolin-6-yl)-4-(pyridin-3-yl)thiazol-2-amine], 50 to 1000 nM. In the case of `N[C@H](CNc1nc(-c2ccccc2F)c(-c2ccc3cnccc3c2)s1)Cc1ccc(C(F)(F)F)cc1` [Example 105, N—((S)-2-Amino-3-(4-(trifluoromethyl)phenyl)propyl)-4-(2-fluorophenyl)-5-(isoquinolin-6-yl)thiazol-2-amine], the IC50 was < 50 nM.

`N[C@H](CNc1ncc(-c2ccc3c(c2)CC(=O)N3)s1)Cc1ccc(OCCCO)cc1` [Example 95, 5-(2-((S)-2-Amino-3-(4-(3-hydroxypropoxy)phenyl)propylamino)-thiazol-5-yl)indolin-2-one] registered an IC50 of 1000 to 10000 nM. As for `Cn1c(=O)[nH]c2ccc(-c3cnc(NC[C@@H](N)Cc4cc(F)cc(F)c4)s3)cc21` [Example 162, 6-(2-((S)-2-amino-3-(3,5-difluorophenyl)propylamino)thiazol-5-yl)-1-methyl-1H-benzo[d]imidazol-2(3H)one], the IC50 lay within 1000 to 10000 nM.

Take `NC(CNc1ncc(-c2ccc3[nH]c(=O)oc3c2)s1)Cc1ccc(C(F)(F)F)c(F)c1` (stereo not drawn) [Example 181, 6-(2-(2-amino-3-(3-fluoro-4-(trifluoromethyl)phenyl)propylamino)thiazol-5-yl)benzo[d]oxazol-2(3H)-one]: the IC50 was < 50 nM. With `N[C@H](CNc1nc(C2CCCO2)c(-c2ccc3cnccc3c2)s1)Cc1ccc(Cl)cc1` (stereo partly drawn) [Example 196, N—((S)-2-amino-3-(4-chlorophenyl)propyl)-5-(isoquinolin-6-yl)-4-(tetrahydrofuran-2-yl)thiazol-2-amine], the IC50 was 50 to 1000 nM. The molecule `N[C@H](CNc1nc(-c2ccc(F)c(F)c2)c(-c2ccc3cnccc3c2)s1)Cc1ccc(C(F)(F)F)cc1` [Example 101, N—((S)-2-Amino-3-(4-(trifluoromethyl)phenyl)propyl)-4-(3,4-difluorophenyl)-5-(isoquinolin-6-yl)thiazol-2-amine] returned an IC50 of 50 to 1000 nM. Next, `NC(CNc1ncc(-c2ccc3c(c2)CC(=O)N3)s1)Cc1ccc(OC(F)(F)F)cc1` (stereo not drawn) [Example 188, 5-(2-(-2-amino-3-(4-(trifluoromethoxy)phenyl)propylamino)thiazol-5-yl)indolin-2-one]: < 50 nM; `C[C@@H](c1ccc(C(F)(F)F)cc1)[C@H](N)CNc1ncc(-c2cc(F)c3c(c2)CC(=O)N3)s1` [Example 222, 5-(2-((2S,3S)-2-amino-3-(4-(trifluoromethyl)phenyl)butylamino)thiazol-5-yl)-7-fluoroindolin-2-one]: 50 to 1000 nM; `N[C@H](CNc1ncc(-c2ccc3[nH]c(=O)oc3c2)s1)Cc1ccc(C(F)(F)F)nc1` [Example 172, 6-(2-((S)-2-amino-3-(6-(trifluoromethyl)pyridine-3-yl)propylamino)thiazol-5-yl)benzo[d]oxazol-2(3H)-one]: < 50 nM. The molecule `COc1cc(C[C@H](N)CNc2ncc(-c3ccc4c(c3)CNC4=O)s2)cnc1C(F)(F)F` [Example 238, 5-(2-((S)-2-amino-3-(5-methoxy-6-(trifluoromethyl)pyridin-3-yl)propylamino)thiazol-5-yl)isoindolin-1-one] gave an IC50 of 50 to 1000 nM. With `N[C@H](CNc1ncc(-c2ccc3c(c2)CC(=O)N3)s1)Cc1ccc(Cl)cc1Cl` [Example 113, 5-(2-((S)-2-Amino-3-(2,4-dichlorophenyl)propylamino)thiazol-5-yl)indolin-2-one], the IC50 lay in the range of 50 to 1000 nM. On to `COCc1nc(NC[C@@H](N)Cc2ccc(C(F)(F)F)cc2)sc1-c1ccc2cnccc2n1` [Example 71, N—((S)-2-amino-3-(4-(trifluoromethyl)phenyl)propyl)-4-(methoxymethyl)-5-(1,6-naphthyridin-2-yl)thiazol-2-amine], for which the half-maximal inhibitory concentration (IC50) is < 50 nM. As to `N[C@@H](Cc1cccc(C(F)(F)F)c1)CN(Cc1ccccc1)c1ncc(-c2nc3ccncc3s2)s1` [Example 29, N—((S)-2-amino-3-(3-(trifluoromethyl)phenyl)propyl)-N-benzyl-5-(thiazolo[5,4-c]pyridin-2-yl)thiazol-2-amine], the IC50 fell in the range of 1000 to 10000 nM. Molecule `N[C@H](CNc1nc(-c2ccccn2)c(-c2nc3ccncc3s2)s1)Cc1ccc(C(F)(F)F)cc1` [Example 60, N—((S)-2-amino-3-(4-(trifluoromethyl)phenyl)propyl)-4-(pyridin-2-yl)-5-(thiazolo[5,4-c]pyridin-2-yl)thiazol-2-amine] yielded an IC50 of 1000 to 10000 nM.

In the case of `Cn1c(=O)[nH]c2ccc(-c3cnc(NC[C@@H](N)Cc4ccc(C(F)(F)F)cc4)s3)cc21` [Example 57, 6-(2-((S)-2-amino-3-(4-(trifluoromethyl)phenyl)propylamino)thiazol-5-yl)-1-methyl-1H-benzo[d]imidazol-2(3H)-one], the IC50 was < 50 nM. As to `N[C@H](CNc1ncc(-c2ccc3[nH]c(=O)oc3c2)s1)Cc1ccc(Cl)c(F)c1` [Example 84, 6-(2-((S)-2-Amino-3-(4-chloro-3-fluorophenyl)propylamino)thiazol-5-yl)benzo[d]oxazol-2(3H)-one], the IC50 was < 50 nM. Consider `CCOCc1nc(NC[C@@H](N)Cc2ccc(Cl)cc2)sc1-c1nc2ccncc2s1` [Example 77, N—((S)-2-amino-3-(4-chlorophenyl)propyl)-4-(ethoxymethyl)-5-(thiazolo[5,4-c]pyridin-2-yl)thiazol-2-amine], for which the IC50 fell in the range of 50 to 1000 nM. In turn, `N[C@H](CNc1ncc(-c2ccc3cnncc3c2)s1)Cc1ccc(C(F)(F)F)cc1` [Example 64, N—((S)-2-amino-3-(4-(trifluoromethyl)phenyl)propyl)-5-(phthalazin-6-yl)thiazol-2-amine] gave an IC50 of 50 to 1000 nM.

`N[C@H](CNc1nc(CO)c(-c2ccc3[nH]c(=O)oc3c2)s1)Cc1ccc(C(F)(F)F)cc1` [Example 125, 6-(2-((S)-2-Amino-3-(4-(trifluoromethyl)phenyl)propylamino)-4-(hydroxymethyl)thiazol-5-yl)benzo[d]oxazol-2(3H)-one]: the IC50 was < 50 nM.

For the molecule `N[C@H](CNc1ncc(-c2ccc3c(c2)CC(=O)N3)s1)Cc1ccc2ccccc2c1` [Example 201, 5-(2-((S)-2-amino-3-(naphthalen-2-yl)propylamino)thiazol-5-yl)indolin-2-one], the IC50 is 50 to 1000 nM.

Turning to `COCc1nc(NC[C@@H](N)Cc2ccc(C(F)(F)F)cc2)sc1-c1ccc2c(c1)CC(=O)N2` [Example 69, 5-(2-((S)-2-amino-3-(4-(trifluoromethyl)phenyl)propylamino)-4-(methoxymethyl)thiazol-5-yl)indolin-2-one], the half-maximal inhibitory concentration (IC50) was < 50 nM. Next, `N[C@H](CNc1ncc(-c2ccc3c(c2F)CC(=O)N3)s1)Cc1ccc(C(F)(F)F)cc1` [Example 224, 5-(2-((S)-2-amino-3-(4-(trifluoromethyl)phenyl)propylamino)thiazol-5-yl)-4-fluoroindolin-2-one]: < 50 nM. For `N[C@H](CNc1ncc(-c2ccc3[nH]c(=O)sc3c2)s1)Cc1c[nH]c2ccccc12` [Example 35, 6-(2-((S)-2-amino-3-(1H-indol-3-yl)propylamino)thiazol-5-yl)benzo[d]thiazol-2(3H)-one] the value was 50 to 1000 nM; for `N[C@H](CNc1ncc(-c2ccc3[nH]c(=O)[nH]c3c2)s1)Cc1ccc(C(F)(F)F)cc1` [Example 193, 5-(2-((S)-2-amino-3-(4-(trifluoromethyl)-phenyl)propylamino)thiazol-5-yl)-1H-benzo[d]imidazol-2(3H)-one], 50 to 1000 nM. Take `N[C@H](CNc1ncc(-c2ccc3c(c2)CC(=O)N3)s1)Cc1c[nH]c2ccccc12` [Example 74, 5-(2-((S)-2-amino-3-(1H-indol-3-yl)propylamino)thiazol-5-yl)indolin-2-one ditrifluoroacetate]: the IC50 was 1000 to 10000 nM.

`NC(CNc1ncc(-c2ccc3cnccc3c2)s1)Cc1ccc(O)c(F)c1` (stereo not drawn) [Example 218, 4-(2-Amino-3-(5-(isoquinolin-6-yl)thiazol-2-ylamino)propyl)-2-fluorophenol]: the IC50 was < 50 nM.

Turning to `CC#Cc1nc(NC[C@@H](N)Cc2ccc(C(F)(F)F)cc2)sc1-c1ccc2cnccc2c1` [Example 143, N—((S)-2-amino-3-(4-(trifluoromethyl)phenyl)propyl)-5-(isoquinolin-6-yl)-4-(prop-1-ynyl)thiazol-2-amine], the IC50 was < 50 nM.

Molecule `Cc1n[nH]c2ccc(-c3cnc(NC[C@@H](N)Cc4c[nH]c5ccccc45)s3)cc12` [Example 2, N—((S)-2-amino-3-(1H-indol-3-yl)propyl)-5-(3-methyl-1H-indazol-5-yl)thiazol-2-amine] showed a 50% inhibitory concentration (IC50) of 50 to 1000 nM.
